pKi: −log10 of the molar value.
Tests used:
[1] = molecular target: Cathepsin S (Homo sapiens, UniProt P25774); test: Cathepsin S inhibition assay (fluorogenic peptide substrate); format: biochemical; settings: Table II, compounds of Formula I; read-out: Ki Cat. S
How it was run: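 Ki values come from nonlinear fitting of inhibited hydrolysis rates, taking free and total inhibitor concentrations as equal. Rates measured as rising fluorescence at 380/450 nm after reaction start with 50 μM final acetyl-HPVK-aminocarbamoylcoumarin.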

[2] = molecular target: T1, Cathepsin K (Homo sapiens, UniProt P43235); test: Cathepsin K inhibition assay (fluorogenic peptide substrate); selectivity ratio vs cathepsin S; format: biochemical; settings: ratio of cathepsin K inhibition constant to cathepsin S inhibition constant; Table II
T1 sequence (P43235 115-329): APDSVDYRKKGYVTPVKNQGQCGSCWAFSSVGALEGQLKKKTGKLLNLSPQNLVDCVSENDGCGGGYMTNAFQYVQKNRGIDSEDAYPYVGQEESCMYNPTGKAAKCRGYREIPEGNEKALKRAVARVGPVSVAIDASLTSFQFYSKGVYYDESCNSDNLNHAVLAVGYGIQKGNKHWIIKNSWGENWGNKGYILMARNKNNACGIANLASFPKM
How it was run: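 Fluorogenic kinetic assay, started with acetyl-Lys-His-Pro-Lys-aminocarbamoylcoumarin at 40 μM final, hydrolysis followed at ex 380/em 450 nm. Apparent inhibition constants from progress curves, converted to competitive inhibition constants. Selectivity expressed as isozyme inhibition constant divided by cathepsin S inhibition constant.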

Chain of Cathepsin S (P25774 115-331, species assumed): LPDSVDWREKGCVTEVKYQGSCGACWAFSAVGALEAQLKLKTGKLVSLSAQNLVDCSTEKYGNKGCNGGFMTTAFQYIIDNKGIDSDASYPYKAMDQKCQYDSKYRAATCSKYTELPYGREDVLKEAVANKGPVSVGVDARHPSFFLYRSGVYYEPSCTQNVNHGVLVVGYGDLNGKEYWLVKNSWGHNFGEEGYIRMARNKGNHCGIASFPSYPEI

| Compound | pKi [1] | Selectivity for Cat. S over Cat. K [2] |
| --- | --- | --- |
| CC(=O)N1CCN(c2ccc(OCC(=O)N[C@@H](CC3CCCCC3)C(=O)NCCNc3ccc(OC(F)(F)F)cc3)cc2)CC1 [Compound 15, (S)-2-{2-[4-(4-Acetyl-piperazin-1-yl)-phenoxy]-acetylamino}-3-cyclohexyl-N-[2-(4-trifluoromethoxy-phenylamino)-ethyl]-propionamide] | > 6.00 | + (+, >10) |
| COc1ccc(NCCNC(=O)[C@H](Cc2ccc(OCc3ccccc3)cc2)NC(=O)c2cccc(C)c2)cc1 [Compound 247, (S)-N-{2-(4-Benzyloxy-phenyl)-1-[2-(4-methoxy-phenylamino)-ethylcarbamoyl]-ethyl}-3-methyl-benzamide] | > 7.00 | +++ (+++, >1000) |
| Cc1nc(-c2ccc(C(=O)N[C@@H](CC3CCCCC3)C(=O)NCCNc3ccc(OC(F)(F)F)cc3)cc2)no1 [Compound 27] | > 7.00 | +++ (+++, >1000) |
| O=C(Cc1cc(F)ccc1F)N[C@@H](CC1CCCCC1)C(=O)NCCNc1ccc(F)cc1 [Compound 95, 3-Cyclohexyl-2-(S)-[2-(2,5-difluorophenyl)-acetylamino]-N-[2-(4-fluoro-phenylamino)-ethyl]-propionamide] | > 7.00 | ++ (++, >100) |
| COc1ccc(NCCNC(=O)[C@H](Cc2cccc(C(F)(F)F)c2)NC(=O)c2cccc(C)c2)cc1 [Compound 252, (S)-N-[1-[2-(4-Methoxy-phenylamino)-ethylcarbamoyl]-2-(3-trifluoromethyl-phenyl)-ethyl]-3-methyl-benzamide] | > 7.00 | +++ (+++, >1000) |
| COc1ccc(NCCNC(=O)[C@H](CCC2CCCCC2)NC(=O)c2cccc(C(F)(F)F)c2)cc1 [Compound 126, (S)-N-{3-Cyclohexyl-1-[2-(4-methoxy-phenylamino)-ethylcarbamoyl]-propyl}-3-trifluoromethyl-benzamide] | > 7.00 | +++ (+++, >1000) |
| COc1ccc(NCCNC(=O)[C@H](Cc2ccc(Cl)c(Cl)c2)NC(=O)c2cccc(C)c2)cc1 [Compound 231, (S)-N-{2-(3,4-Dichloro-phenyl)-1-[2-(4-methoxy-phenylamino)-ethylcarbamoyl]-ethyl}-3-methyl-benzamide] | > 7.00 | +++ (+++, >1000) |
| COc1ccc(NCCNC(=O)[C@H](Cc2ccccc2)NC(=O)c2cccnc2)cc1 [Compound 63, (S)-N-{1-[2-(4-Methoxy-phenylamino)-ethylcarbamoyl]-2-phenyl-ethyl}-nicotinamide] | > 5.00 | + (+, >10) |
| COc1ccc(NCCNC(=O)[C@H](Cc2ccc(F)c(F)c2)NC(=O)c2cccc(C)c2)cc1 [Compound 237, (S)-N-{2-(3,4-Difluoro-phenyl)-1-[2-(4-methoxy-phenylamino)-ethylcarbamoyl]-ethyl}-3-methyl-benzamide] | > 7.00 | +++ (+++, >1000) |
| O=C(N[C@@H](CC1CCCCC1)C(=O)NCCNc1ccc(OC(F)(F)F)cc1)c1ccc(-c2ccccc2)cc1 [Compound 234, (S)-Biphenyl-4-carboxylic acid {2-cyclohexyl-1-[2-(4-trifluoromethoxy-phenylamino)-ethylcarbamoyl]-ethyl}-amide] | > 7.00 | + (+, >10) |
| O=C(N[C@@H](CC1CCCCC1)C(=O)NCCNc1ccc(OC(F)(F)F)cc1)c1ccc(-c2cccc(OC(F)(F)F)c2)s1 [Compound 209, (S)-5-(3-Trifluoromethoxy-phenyl)-thiophene-2-carboxylic acid {2-cyclohexyl-1-[2-(4-trifluoromethoxy-phenylamino)-ethylcarbamoyl]-ethyl}-amide] | > 7.00 | +++ (+++, >1000) |
| O=C(Cc1ccccc1)N[C@@H](CC1CCCCC1)C(=O)NCCNc1ccc(F)cc1 [Compound 303, 3-Cyclohexyl-N-[2-(4-fluoro-phenylamino)-ethyl]-2-(S)-phenylacetylamino-propionamide] | > 7.00 | ++ (++, >100) |
| COc1ccc(NCCNC(=O)[C@H](CCC2CCCCC2)NC(=O)c2ccc(C#N)cc2)cc1 [Compound 140, (S)-4-Cyano-N-{3-cyclohexyl-1-[2-(4-methoxy-phenylamino)-ethylcarbamoyl]-propyl}-benzamide] | > 7.00 | +++ (+++, >1000) |
| O=C(N[C@@H](CC1CCCCC1)C(=O)NCCNc1ccc(OC(F)(F)F)cc1)c1ccc(-c2cccc(C(F)(F)F)c2)s1 [Compound 50, 5-(3-Trifluoromethyl-phenyl)-thiophene-2-carboxylic acid (S)-{2-cyclohexyl-1-[2-(4-trifluoromethoxy-phenylamino)-ethylcarbamoyl]-ethyl}-amide] | > 7.00 | +++ (+++, >1000) |
| COc1ccc(NCCNC(=O)C(NC(=O)c2cccc(C)c2)c2ccc(Cl)cc2)cc1 (racemic) [Compound 8, (±)-N-((2-(4-methoxyphenylamino)ethylcarbamoyl)(4-chlorophenyl)methyl)-3-methylbenzamide] | > 7.00 | +++ (+++, >1000) |
| CC(C(=O)NC(CC1CCCCC1)C(=O)NCCNc1ccc(F)cc1)c1ccc(-c2ccccc2)c(F)c1 [Compound 308, N-(S)-{2-cyclohexyl-1-[2-(4-fluoro-phenylamino)-ethylcarbamoyl]-ethyl}-2-(2-fluoro-biphenyl-4-yl)-propionamide] | > 7.00 | ++ (++, >100) |
| CS(=O)(=O)c1ccc(CC(=O)N[C@@H](CC2CCCCC2)C(=O)NCCNc2ccc(F)cc2)cc1 [Compound 326, 3-Cyclohexyl-N-[2-(4-fluoro-phenylamino)-ethyl]-2-(S)-[2-(4-methanesulfonyl-phenyl)-acetylamino]-propionamide] | > 6.00 | ++ (++, >100) |
| CC(=O)N1CCC(C(=O)N[C@@H](CC2CCCCC2)C(=O)NCCNc2ccc(F)cc2)CC1 [Compound 79, 1-Acetyl-piperidine-4-carboxylic acid (S)-{2-cyclohexyl-1-[2-(4-fluoro-phenylamino)-ethylcarbamoyl]-ethyl}-amide] | > 5.00 | + (+, >10) |
| COc1ccc(NCCNC(=O)[C@H](Cc2ccccc2)NC(=O)c2cc(C)c(OC)c(C)c2)cc1 [Compound 21, (S)-4-Methoxy-N-{1-[2-(4-methoxy-phenylamino)-ethylcarbamoyl]-2-phenyl-ethyl}-3,5-dimethyl-benzamide] | > 7.00 | + (+, >10) |
| COc1ccc(NCCNC(=O)[C@H](Cc2ccccc2)NC(=O)c2cccc(Br)c2)cc1 [Compound 78, (S)-3-Bromo-N-{1-[2-(4-methoxy-phenylamino)-ethylcarbamoyl]-2-phenyl-ethyl}-benzamide] | > 7.00 | + (+, >10) |
| COc1ccc(NCCNC(=O)[C@H](CC2CCCCC2)NC(=O)c2ccc(F)c(C(F)(F)F)c2)cc1 [Compound 149, (S)-N-{2-Cyclohexyl-1-[2-(4-methoxy-phenylamino)-ethylcarbamoyl]-ethyl}-4-fluoro-3-trifluoromethyl-benzamide] | > 7.00 | +++ (+++, >1000) |

Reference: patent US7109243B2 (IRM LLC, priority 2003, dated 2006)
